This is an account of results in patent US7626044B2, “Triptolide derivatives and their uses” (priority 2002, dated 2009).

Series [1] has as its system C57BL/6 skin allograft on BALB/c mice. The series can be described thus: Murine skin allograft transplantation. To be noted: C57BL/6 skin to BALB/c mice; daily i.p.; preliminary results. The series is classed as in vivo, mouse. On the procedure: Full-thickness tail skin was aseptically harvested from adult C57BL/6 mice.
The skin allografts were transplanted onto the flank of adult recipient BALB/c mice.
Engrafted mice were administered LLDT-8 daily or, as a control, phosphate-buffered saline (PBS) by intraperitoneal (i.p.) injection.

For series [2], the system named is B lymphocyte. The series can be described thus: LPS induced B-lymphocyte proliferation ([3H]thymidine). The series is classed as cell-based, mouse. As to the method: Mice were sacrificed by cervical dislocation, and spleens were collected under sterile conditions then teased through a nylon mesh. Erythrocytes were lysed. Cells were washed and resuspended at 5×10^6/ml in RPMI-1640 media containing 10% FBS. For one 96 well plate assay, 100 pt of cells, 50 μl of sample and 50 μl of ConA/LPS were added into each well with the final volume 200 μl. The control wells were set up with 50 μl of RPMI-1640 media instead of ConA/LPS.
Plates were incubated for 48 h (ConA) or 60 h (LPS), respectively, at 37° C., 5% CO2 in a humidified incubator. In the last 8 h of incubation, 25 μl (1.9×10^10 Bq) of [^3H]thymidine was added. After plates were incubated for 48 h, the plates (ConA) were stored at −20° C., then after another 12 h, the plates (LPS) were stored at −20° C.
At the end of incubation, pulsed cells were harvested on a glass filter using a cell harvester ([…]96®, TOMTEC) and allowed to dry. Incorporation of radioactive thymidine was determined by using liquid Scintillation and Luminescence Counters (MicroBeta Trilux®, PerkinElmer).

For series [3], the system named is rat adjuvant arthritis. The series can be described thus: Rat adjuvant arthritis (AA), drug prevention. Type of series: in vivo. On the procedure: SD rats were immunized on day 0 by intradermal injection of Complete Freund's adjuvant (CFA), containing 10 mg heat-inactivated BCG in 1 ml paraffin oil, into the left hind paw in 0.1 ml for each rat. Right hind paw volume was determined before immunization (basic value, day 0) and repeated every 4 days from day 12. The polyarthritis severity was graded on a scale of 0-4: 0=no swelling; 1=isolated phalanx joint involvement; 2=involvement of phalanx joint and digits; 3=involvement of the entire region down to the ankle; 4=involvement of entire paw, including ankle. The maximum joint score was 16 for each rat.
Lymphocyte proliferation assay: Splenocytes were prepared aseptically from AA rat at day 28 and resuspended in RPMI-1640 medium supplemented with 10% fetal bovine serum.
5×10^5 cells each well were inoculated into 96-well plate with ConA or LPS in a final volume of 200 μl. Cells were cultured in 5% CO2 incubator at 37° C. for 48 h. Cells were pulsed with 1.9×10^10 Bq/well of [^3H]-thymidine 7-8 h before harvest. After the culture finished, cells were harvested onto glass fiber filters and the incorporated radioactivity was counted by a Beta Scintillator (MicroBeta Trilux, PerkinElmer Life Sciences).

For series [4], the system named is WI-38 (human lung fibroblasts). The series can be described thus: Cell proliferation, WI-38. The series is classed as cell-based. The conditions noted are these: read-out: Inhibitory effect on tumor cell proliferation IC50.
In series [5] the test system is murine T lymphocytes. The series can be described thus: Induction of T lymphocyte apoptosis (PI staining, FACS). Type of series: cell-based, mouse. On the procedure:
(1) The Tuf-tainer (non-adherent to cells) was pretreated with culture medium for 2 h;
(2) As that described in proliferation assay, Balb/c mice were sacrificed and their spleens were removed aseptically. A single cell suspension was prepared and resuspended in RPMI-1640 media at 5×10^6/ml.
(3) Cells were added to 5 μg/ml ConA or medium;
(4) The cells were cultured in 5% CO2 incubator at 37° C. for 24-96 h;
(5) Cells were collected and washed with PBS, centrifugated at 400 g for 10 min at 4° C.;
(6) The collected cells were shaken 10 s violently and 1 ml ice-cold 70% ethanol was added dropwise, capped and fixed overnight at […].;
(7) The cells were centrifuged at 3000 rpm for 5 min and the ethanol was removed; Incubated cells with 1 ml PI staining buffer at room temperature more than 30 min; FACs analysis was performed with 24 h.

Series [6] has as its system mice. The series can be described thus: Acute toxicity (LD50) test in mice, oral. The series is classed as in vivo, mouse. To be noted: single oral administration. On the procedure:
Mice were single administered with LLDT-8 by oral, and observed for clinical signs of toxicity immediately and the following 14 days. Necropsy was performed on all animals that died and on all survivors at the end of the 2-week study. Death was seen from the next day after treatment and reached a peak at the 2-3 day. […] There was no gender difference in survival.

Usually LD50 stands for the dose expected to kill half of the subjects tested. A higher LD50 goes with a less toxic substance. With `CC(C)[C@]12O[C@H]1[C@@H]1O[C@]13[C@]1(O[C@H]1C[C@@]1(O)C4=C(CC[C@]31C)C(=O)OC4)[C@@H]2O` [LLDT-8, (5R)-5-hydroxytriptolide], the murine allograft survival result in series [1] is listed as “prolonged murine allograft survival”. The “ED50 for inhibiting B lymphocyte proliferation induced by LPS” value in series [2] (60 h) came out at 0.0598 µg/mL. Moreover, the EC50 in series [2] (60 h, read-out: ED50 for inhibiting B lymphocyte proliferation induced by LPS) was 159 nM. For the same compound, the “more potent inhibitory activity than CsA (B lymphocyte proliferation)” value in series [2] (compared with CsA) is on record as “about 4.3 fold”. Also, in series [3] (LLDT-8 3, 1 and 0.2 mg/Kg/d, CsA 10 mg/Kg/d), the “body weight decrease in AA rat” value is “abrogation of body weight decrease”. Besides, in series [3] (compared with AA model group), the “immune cell infiltration, synovial tissue proliferation, cartilage erosion” value is “marked decrease of immune cell infiltration, smaller degree of synovial tissue proliferation, and less cartilage erosion”. Moreover, the “right hind paw swelling and polyarthritic symptoms” value in series [3] (i.p. day −2 to day 28, LLDT-8 3, 1 and 0.2 mg/Kg/d, CsA 10 mg/Kg/d) was “diminished the right hind paw swelling and polyarthritic symptoms”. Moreover, the polyarthritis severity result in series [3] (score 0-4 per paw) is “amelioration of established polyarthritis”. Besides, in series [3] (splenocytes from AA rat at day 28), the “proliferation of B splenocytes induced by LPS” value was “inhibited the proliferation of B splenocytes induced by LPS”. For the same compound, the IC50 in series [4] is 480 nM. Besides, the “CD4+ and CD8+ T lymphocytes percentage” value in series [5] was “reduced CD4^+ and CD8^+ T lymphocytes percentage”. Further, in series [5] (at concentration below or near the IC50 for lymphocyte cytotoxicity), the “apoptosis of murine T lymphocytes” value is “induced the apoptosis of murine T lymphocytes”. In addition, in series [6] (mice), the “LD50 95% confidence limits” value is 5.4 to 8.4 mg/kg. In series [6] (mice, 14 days, Bliss' method), the LD50 stood at 6.8 mg/kg. Moreover, in series [6], the “gross pathology (hemorrhage)” value is “Obvious hemorrhage was seen at pylorus, duodenum, jejunum and ileum”; the “pathological changes in tissues by gross necropsy in survivors at day 15” value is on record as “No significant pathological changes”.
